Reference: patent US20130109682A1, “CYCLIC ETHER COMPOUNDS USEFUL AS KINASE INHIBITORS” (NOVARTIS AG, priority 2010, published 2013)

Tests used:
Format in all cases: biochemical
PKCα = PKCα (Homo sapiens, UniProt P17252); assay: PKCα kinase Caliper assay; details: PKCα Caliper assay; read-out: PKC IC50
Method in brief: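 Eight-point compound dilutions incubated with PKCα and peptide/ATP for 60 min at 30° C in 50 mM HEPES pH 7.5, 1 mM DTT, 0.02% Tween20, 0.02% BSA, 0.6% DMSO. Activity from phospho-peptide formed, separated by microfluidic mobility shift.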

GSK3β = GSK3β (Homo sapiens, UniProt P49841); assay: GSK3β ATP depletion assay; details: ATP depletion assay; read-out: GSK3b IC50
Sequence of GSK3β (P49841 whole entry, species assumed): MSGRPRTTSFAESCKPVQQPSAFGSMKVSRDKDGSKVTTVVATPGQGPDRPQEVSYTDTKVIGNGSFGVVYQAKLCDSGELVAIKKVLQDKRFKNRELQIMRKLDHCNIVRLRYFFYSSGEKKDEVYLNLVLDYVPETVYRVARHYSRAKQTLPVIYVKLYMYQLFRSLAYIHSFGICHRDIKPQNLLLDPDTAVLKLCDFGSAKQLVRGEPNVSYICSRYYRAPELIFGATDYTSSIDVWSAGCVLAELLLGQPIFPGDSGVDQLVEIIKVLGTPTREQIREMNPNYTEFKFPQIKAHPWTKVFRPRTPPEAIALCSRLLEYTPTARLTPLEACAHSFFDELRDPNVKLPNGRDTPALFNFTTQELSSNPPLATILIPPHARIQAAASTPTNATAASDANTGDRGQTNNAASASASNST
Method in brief: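 Human GSK3β (5 nM) preincubated 15 min with 10 μM biotinylated phospho-CREB peptide in pH 7.5 Tris buffer (15 mM MgCl2, 1 mM DTT, 0.1% BSA, 2.5% DMSO). Reaction started with 2 μM ATP and run to about 50% ATP depletion. Remaining ATP measured by KinaseGlo luminescence.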

PDGFRaV561D kinase = PDGFRaV561D kinase (Homo sapiens, UniProt P16234, V561D); assay: PDGFRaV561D kinase inhibition assay (LanthaScreen TR-FRET); details: read-out: PDGFRa IC50
Sequence of PDGFRaV561D kinase (P16234 24-1089 V561D): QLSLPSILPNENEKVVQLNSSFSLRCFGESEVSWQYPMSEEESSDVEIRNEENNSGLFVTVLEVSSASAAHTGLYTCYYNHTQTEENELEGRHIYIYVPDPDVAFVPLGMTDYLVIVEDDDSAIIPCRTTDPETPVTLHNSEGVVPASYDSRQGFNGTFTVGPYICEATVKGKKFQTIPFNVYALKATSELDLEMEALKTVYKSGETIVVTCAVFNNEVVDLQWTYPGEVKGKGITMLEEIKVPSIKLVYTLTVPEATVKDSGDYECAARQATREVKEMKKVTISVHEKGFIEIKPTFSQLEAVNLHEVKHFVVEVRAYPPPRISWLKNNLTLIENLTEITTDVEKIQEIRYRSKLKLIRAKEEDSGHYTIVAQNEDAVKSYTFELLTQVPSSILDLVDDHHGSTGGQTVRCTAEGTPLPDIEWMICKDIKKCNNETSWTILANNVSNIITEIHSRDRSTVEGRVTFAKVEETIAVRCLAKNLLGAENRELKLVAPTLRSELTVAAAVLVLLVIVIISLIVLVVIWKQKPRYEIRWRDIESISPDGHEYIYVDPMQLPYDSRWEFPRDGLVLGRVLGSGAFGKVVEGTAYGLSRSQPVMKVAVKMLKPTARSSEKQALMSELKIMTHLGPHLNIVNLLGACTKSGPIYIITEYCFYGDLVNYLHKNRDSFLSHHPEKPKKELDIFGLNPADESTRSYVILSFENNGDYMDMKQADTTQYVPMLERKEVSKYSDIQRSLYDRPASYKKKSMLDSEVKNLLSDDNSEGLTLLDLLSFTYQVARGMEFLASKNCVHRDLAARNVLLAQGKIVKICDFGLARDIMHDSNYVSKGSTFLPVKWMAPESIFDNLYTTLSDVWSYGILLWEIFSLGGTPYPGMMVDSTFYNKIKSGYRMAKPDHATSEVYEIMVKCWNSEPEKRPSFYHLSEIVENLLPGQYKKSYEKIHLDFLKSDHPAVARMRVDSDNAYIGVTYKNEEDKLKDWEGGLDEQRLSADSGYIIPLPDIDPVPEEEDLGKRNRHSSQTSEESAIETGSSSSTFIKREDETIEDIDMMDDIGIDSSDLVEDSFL
Method in brief: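 TR-FRET end-point assay with 4.4 nM PDGFRa V561D kinase, 50 nM polyEAY, 10 mM Mn and 2 μM ATP (f.c.) in Tris pH 7.4 buffer. After 1 h, EDTA stop and Tb-labeled P-20 antibody added; read after 45 min in the dark.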

Structure (SMILES) | IC50 (PKCα) | IC50 (GSK3β) | IC50 (PDGFRaV561D kinase)
C[C@@]1(O)[C@@H](N)C[C@@H](c2ccncc2NC(=O)c2nc(-c3ccccc3)cnc2N)O[C@H]1C1CC1 [Example 347, 3-amino-N-(4-((2S,4S,5R,6S)-4-amino-6-cyclopropyl-5-hydroxy-5-methyltetrahydro-2H-pyran-2-yl)pyridin-3-yl)-6-phenylpyrazine-2-carboxamide] | 1 µM | 0.57 µM | 9 µM
CC[C@H]1O[C@@H](c2ccncc2NC(=O)c2nc(-c3ccccc3)cnc2N)C[C@@H](N)[C@]1(C)O [Example 348, 3-amino-N-(4-((2R,4R,5S,6R)-4-amino-6-ethyl-5-hydroxy-5-methyltetrahydro-2H-pyran-2-yl)pyridin-3-yl)-6-phenylpyrazine-2-carboxamide] | 0.22 µM | 0.12 µM | 0.15 µM
Nc1ncc(-c2ccccc2)nc1C(=O)Nc1cnccc1[C@@H]1C[C@H](N)[C@@H](O)[C@H](C2CC2)O1 [Example 349, 3-amino-N-(4-((2S,4S,5R,6S)-4-amino-6-cyclopropyl-5-hydroxytetrahydro-2H-pyran-2-yl)pyridin-3-yl)-6-phenylpyrazine-2-carboxamide] | 0.14 µM | 0.1 µM | 3.3 µM
C[C@@]1(O)[C@@H](N)C[C@@H](c2ccncc2NC(=O)c2nc(-c3ccccc3)cnc2N)OC12CC2 [Example 350, 3-amino-N-(4-((5S,7S,8R)-7-amino-8-hydroxy-8-methyl-4-oxaspiro[2.5]octan-5-yl)pyridin-3-yl)-6-phenylpyrazine-2-carboxamide] | 0.021 µM | 0.0078 µM | 0.42 µM
C[C@@]1(O)[C@H](N)C[C@@H](c2ccncc2NC(=O)c2nc(-c3ccccc3)cnc2N)OC12CC2 [Example 352, 3-amino-N-(4-((5S,7R,8R)-7-amino-8-hydroxy-8-methyl-4-oxaspiro[2.5]octan-5-yl)pyridin-3-yl)-6-phenylpyrazine-2-carboxamide] | 0.055 µM | 0.0053 µM | 0.041 µM
C[C@]1(O)[C@H](N)C[C@H](c2ccncc2NC(=O)c2nc(-c3ccccc3)cnc2N)OC12CC2 [Example 353, 3-amino-N-(4-((5R,7R,8S)-7-amino-8-hydroxy-8-methyl-4-oxaspiro[2.5]octan-5-yl)pyridin-3-yl)-6-phenylpyrazine-2-carboxamide] | 0.084 µM | 0.025 µM | 0.76 µM
CC(C)(C)[C@H]1O[C@@H](c2ccncc2NC(=O)c2nc(-c3ccccc3)cnc2N)C[C@@H](N)[C@@H]1O [Example 354, 3-amino-N-(4-((2R,4R,5S,6R)-4-amino-6-tert-butyl-5-hydroxytetrahydro-2H-pyran-2-yl)pyridin-3-yl)-6-phenylpyrazine-2-carboxamide] | 0.022 µM | 0.0032 µM | 0.026 µM
CC(C)(C)[C@@H]1O[C@H](c2ccncc2NC(=O)c2nc(-c3ccccc3)cnc2N)C[C@H](N)[C@H]1O [Example 355, 3-amino-N-(4-((2S,4S,5R,6S)-4-amino-6-tert-butyl-5-hydroxytetrahydro-2H-pyran-2-yl)pyridin-3-yl)-6-phenylpyrazine-2-carboxamide] | 0.84 µM | 0.17 µM | 9.1 µM
CC(C)[C@H]1O[C@@H](c2ccncc2NC(=O)c2nc(-c3ccccc3)cnc2N)C[C@@H](N)[C@@H]1O [Example 356, 3-amino-N-(4-((2R,4R,5S,6R)-4-amino-5-hydroxy-6-isopropyltetrahydro-2H-pyran-2-yl)pyridin-3-yl)-6-phenylpyrazine-2-carboxamide] | 0.075 µM | 0.0086 µM | 0.053 µM
